For 8 compounds, IC50 and EPSA results are on record in patent US20260022143A1, “Cyclic Peptide Inhibitors of IL-23” (JANSSEN PHARMACEUTICA NV, priority 2022, published 2026).

Starred links: 1 amine or outer side, 2 acyl side, 3 side chain; linkers in the order of their positions; H or OH if unused. Positions of bridges follow the written chain, without caps; N, C: chain ends. Non-standard residues stand in square brackets, D forms with d. Residues, ends and D or L forms follow the SMILES beside them. Groups on a side chain read outwards from the residue. *: point of attachment. X62 = C[N+]1(CCCCc2cn(-c3ccc(C[C@H](N[*:1])C(=O)[*:2])cc3)nn2)CCOCC1; Me3N+(CH2)2O(CH2)2O(CH2)2CO = C[N+](C)(C)CCOCCOCCC(=O)*; Trp(7-Me) = Cc1cccc2c(C[C@H](N)C(=O)O)c[nH]c12; d(hLys(Me3)) = C[N+](C)(C)CCCCC[C@@H](N)C(=O)O; Hexanoyl(6-NMe3+) = C[N+](C)(C)CCCCCC(=O)*; γGlu = O=C(O)[C@H](CCC(=O)[*:2])N[*:1]; 2Nal = N[C@@H](Cc1ccc2ccccc2c1)C(=O)O; 3Pal = N[C@@H](Cc1cccnc1)C(=O)O; Cit = NC(=O)NCCC[C@H](N)C(=O)O; Lys(Me) = CNCCCC[C@H](N)C(=O)O; NMeK = CN[C@@H](CCCCN)C(=O)O; Pen = CC(C)(S)[C@H](N)C(=O)O; Lauroyl = CCCCCCCCCCCC(=O)*; Thp = NC1(C(=O)O)CCOCC1; X3 = C[N+](C)(C)CCCCC*; AEEA = NCCOCCOCC(=O)O; Aib = CC(C)(N)C(=O)O; Sar = CNCC(=O)O

In one data set the target is T1, IL-23R (Homo sapiens, UniProt Q5VWK5).
T1 construct: host or cells: HEK293
T1 sequence (Q5VWK5 24-629): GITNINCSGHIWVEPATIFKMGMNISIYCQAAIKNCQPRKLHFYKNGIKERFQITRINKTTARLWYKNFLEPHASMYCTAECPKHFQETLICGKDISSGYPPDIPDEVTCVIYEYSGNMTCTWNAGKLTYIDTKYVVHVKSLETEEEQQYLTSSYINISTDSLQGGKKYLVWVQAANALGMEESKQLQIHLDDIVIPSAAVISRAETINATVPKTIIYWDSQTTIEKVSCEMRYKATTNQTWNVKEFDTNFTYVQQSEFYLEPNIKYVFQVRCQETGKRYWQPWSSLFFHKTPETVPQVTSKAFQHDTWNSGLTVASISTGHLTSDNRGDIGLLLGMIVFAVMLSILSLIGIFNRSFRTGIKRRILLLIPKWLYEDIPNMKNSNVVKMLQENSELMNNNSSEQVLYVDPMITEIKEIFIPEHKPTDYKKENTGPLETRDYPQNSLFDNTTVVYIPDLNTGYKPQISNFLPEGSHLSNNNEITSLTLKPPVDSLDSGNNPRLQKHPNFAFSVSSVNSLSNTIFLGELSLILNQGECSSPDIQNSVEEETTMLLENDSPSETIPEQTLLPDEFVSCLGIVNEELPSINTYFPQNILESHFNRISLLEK
Nature of the data set: IL23R Reporter Assay. In kind it is cell-based. To be noted: HEK293 cells containing IL-23R, IL-12RP1 and STAT-inducible firefly luciferase reporter; 10 ng/mL IL-23 (EC90); 5 h at 37° C.; read-out: IL23R Reporter Assay. On the technique in general: A reporter such as luciferase makes a cellular process visible.

Data set [1] can be described thus: Exposed Polar Surface Area (EPSA). Type of data set: physicochemical. To be noted: SFC on Chirex 3014 column; sample 1 mM DMSO stock; read-out: EPSA. The method, boiled down:
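SFC retention on a Chirex 3014 (S-valine/(R)-1-(α-naphthyl)ethylamine) column at 35 °C, 4 mL/min, 14 MPa outlet, 5–60% methanol/20 mM ammonium formate gradient in CO2. Retention times converted to EPSA (Å²) via linear calibration with 8 standards; samples from 1 mM DMSO stock, run in duplicate.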

Consider `CC(=O)N(C)CCCC[C@@H]1NC(=O)[C@H](Cc2c[nH]c3c(C)cccc23)NC(=O)[C@H]([C@@H](C)O)NC(=O)[C@H](CC(=O)N(C)C)NC(=O)[C@@H](NC(=O)CCOCCOCC[N+](C)(C)C)C(C)(C)SSC(C)(C)[C@@H](C(=O)N[C@@H](Cc2ccc(-n3cc(CCCC[N+]4(C)CCOCC4)nn3)cc2)C(=O)N[C@@H](Cc2ccc3ccccc3c2)C(=O)NC2(C(=O)N[C@@H](CCCCN(C)C(C)=O)C(=O)N[C@@H](CC(N)=O)C(=O)N[C@@H](Cc3cccnc3)C(=O)N(C)CC(=O)N(C)C)CCOCC2)NC1=O` [compound 336, cPEG3aCO-Pen(3)-N(N(Me)2)-T-7MeW-K(NMeAc)-Pen(3)-F(4TzlMMo4)-2Nal-THP-K(NMeAc)-N-3Pya-Sar-CON(Me)2] ({Me3N+(CH2)2O(CH2)2O(CH2)2CO}-[Pen]D(NMe2)T[Trp(7-Me)][Lys(Me)](Ac)[Pen][X62][2Nal][Thp][Lys(Me)](Ac)N[3Pal][Sar]-NMe2; disulfide 1-6), for which the IC50 at IL-23R came out at 1.5 nM. Further, the EPSA in data set [1] amounted to 156 A^2.

As for `CC(=O)N(C)CCCC[C@@H]1NC(=O)[C@H](Cc2c[nH]c3c(C)cccc23)NC(=O)[C@H]([C@@H](C)O)NC(=O)[C@H](CC(=O)N(C)C)NC(=O)[C@@H](NC(=O)CCOCCOCC[N+](C)(C)C)C(C)(C)SSC(C)(C)[C@@H](C(=O)N[C@@H](Cc2ccc(OCCCCC[N+](C)(C)C)cc2)C(=O)N[C@@H](Cc2ccc3ccccc3c2)C(=O)NC(C)(C)C(=O)N[C@@H](CCCCN(C)C(C)=O)C(=O)N[C@@H](CC(N)=O)C(=O)N[C@@H](Cc2cccnc2)C(=O)N(C)CC(=O)N(C)C)NC1=O` [compound 341, cPEG3aCO-Pen(3)-N(N(Me)2)-T-7MeW-K(NMeAc)-Pen(3)-TMAPF-2Nal-Aib-K(NMeAc)-N-3Pya-Sar-CON(Me)2] ({Me3N+(CH2)2O(CH2)2O(CH2)2CO}-[Pen]D(NMe2)T[Trp(7-Me)][Lys(Me)](Ac)[Pen]Y(X3)[2Nal][Aib][Lys(Me)](Ac)N[3Pal][Sar]-NMe2; disulfide 1-6), on IL-23R, the IC50 amounted to 0.97 nM. Moreover, the EPSA in data set [1] came to 153 A^2.

In the case of `CC(=O)N(C)CCCC[C@@H]1NC(=O)[C@H](Cc2c[nH]c3c(C)cccc23)NC(=O)[C@H]([C@@H](C)O)NC(=O)[C@H](CC(=O)N(C)C)NC(=O)[C@@H](NC(=O)CCCCC[N+](C)(C)C)C(C)(C)SSC(C)(C)[C@@H](C(=O)N[C@@H](Cc2ccc(OCCCCC[N+](C)(C)C)cc2)C(=O)N[C@@H](Cc2ccc3ccccc3c2)C(=O)NC2(C(=O)N[C@@H](CCCCN(C)C(C)=O)C(=O)N[C@@H](CC(N)=O)C(=O)N[C@@H](Cc3cccnc3)C(=O)N(C)CC(=O)N(C)C)CCOCC2)NC1=O` [compound 343, 5cpaCO-Pen(3)-N(N(Me)2)-T-7MeW-K(NMeAc)-Pen(3)-TMAPF-2Nal-THP-K(NMeAc)-N-3Pya-Sar-CON(Me)2] ({Hexanoyl(6-NMe3+)}-[Pen]D(NMe2)T[Trp(7-Me)][Lys(Me)](Ac)[Pen]Y(X3)[2Nal][Thp][Lys(Me)](Ac)N[3Pal][Sar]-NMe2; disulfide 1-6), the IC50 on IL-23R is 2 nM. Further, the EPSA in data set [1] was determined as 156 A^2.

On to `CC(=O)N[C@H](CCCCC[N+](C)(C)C)C(=O)N[C@@H]1C(=O)N[C@@H](CC(=O)N(C)C)C(=O)N[C@@H]([C@@H](C)O)C(=O)N[C@@H](Cc2c[nH]c3c(C)cccc23)C(=O)N[C@@H](CCCCN(C)C(C)=O)C(=O)N[C@H](C(=O)N[C@@H](Cc2ccc(OCCCCC[N+](C)(C)C)cc2)C(=O)N[C@@H](Cc2ccc3ccccc3c2)C(=O)NC2(C(=O)N[C@@H](CCCCN(C)C(C)=O)C(=O)N[C@@H](CC(N)=O)C(=O)N[C@@H](Cc3cccnc3)C(=O)N(C)CC(=O)N(C)C)CCOCC2)C(C)(C)SSC1(C)C` [compound 344, MeCO-hk(Me)3-Pen(3)-N(N(Me)2)-T-7MeW-K(NMeAc)-Pen(3)-TMAPF-2Nal-THP-K(NMeAc)-N-3Pya-Sar-CON(Me)2] (Ac-[d(hLys(Me3))][Pen]D(NMe2)T[Trp(7-Me)][Lys(Me)](Ac)[Pen]Y(X3)[2Nal][Thp][Lys(Me)](Ac)N[3Pal][Sar]-NMe2; disulfide 2-7), for which, at IL-23R, the IC50 turned out to be 6.6 nM. Also, in data set [1], the EPSA came to 158 A^2.

For the compound `CC(=O)N(C)CCCC[C@H](NC(=O)C1(NC(=O)[C@H](Cc2ccc3ccccc3c2)NC(=O)[C@H](Cc2ccc(OCCCCC[N+](C)(C)C)cc2)NC(=O)[C@H]2NC(=O)[C@H](CCCNC(N)=O)NC(=O)[C@H](Cc3c[nH]c4c(C)cccc34)NC(=O)[C@H]([C@@H](C)O)NC(=O)[C@H](CC(=O)N(C)C)NC(=O)[C@@H](NC(=O)CCOCCOCC[N+](C)(C)C)C(C)(C)SSC2(C)C)CCOCC1)C(=O)N[C@@H](CC(N)=O)C(=O)N[C@@H](Cc1cccnc1)C(=O)N(C)CC(=O)N(C)C` [compound 346, cPEG3aCO-Pen(3)-N(N(Me)2)-T-7MeW-Cit-Pen(3)-TMAPF-2Nal-THP-K(NMeAc)-N-3Pya-Sar-CON(Me)2] ({Me3N+(CH2)2O(CH2)2O(CH2)2CO}-[Pen]D(NMe2)T[Trp(7-Me)][Cit][Pen]Y(X3)[2Nal][Thp][Lys(Me)](Ac)N[3Pal][Sar]-NMe2; disulfide 1-6), the IC50 at IL-23R stood at 1.8 nM. In data set [1], the EPSA came out at 158 A^2.

For the compound `CCCCCCCCCCCC(=O)N[C@@H](CCC(=O)NCCOCCOCC(=O)NCCOCCOCC(=O)NCCCC[C@H](NC(=O)C1(NC(=O)[C@H](Cc2ccc3ccccc3c2)NC(=O)[C@H](Cc2ccc(OCCCCC[N+](C)(C)C)cc2)NC(=O)[C@H]2NC(=O)[C@H](CCCCNC(C)=O)NC(=O)[C@H](Cc3c[nH]c4c(C)cccc34)NC(=O)[C@H]([C@@H](C)O)NC(=O)[C@H](CC(N)=O)NC(=O)[C@@H](NC(=O)CCOCCOCC[N+](C)(C)C)C(C)(C)SSC2(C)C)CCOCC1)C(=O)N[C@@H](CC(N)=O)C(=O)N[C@@H](Cc1cccnc1)C(=O)N(C)[C@@H](CCCCNC(=O)COCCOCCNC(=O)COCCOCCNC(=O)CC[C@H](NC(=O)CCCCCCCCCCC)C(=O)O)C(N)=O)C(=O)O` [compound 349, cPEG3aCO-Pen(3)-N-T-7MeW-K(Ac)-Pen(3)-TMAPF-2Nal-THP-K(PEG2PEG2gEC12)-N-3Pya-NMeK(PEG2PEG2gEC12)-CONH2] ({Me3N+(CH2)2O(CH2)2O(CH2)2CO}-[Pen]NT[Trp(7-Me)]K(Ac)[Pen]Y(X3)[2Nal][Thp]K([AEEA-AEEA-γGlu-Lauroyl])N[3Pal][NMeK]([AEEA-AEEA-γGlu-Lauroyl])-NH2; disulfide 1-6), the IC50 on IL-23R amounted to 220 nM. In addition, the EPSA in data set [1] was 179 A^2.

For the compound `CCCCCCCCCCCC(=O)N[C@@H](CCC(=O)NCCOCCOCC(=O)NCCOCCOCC(=O)NCCCC[C@@H]1NC(=O)[C@H](Cc2c[nH]c3c(C)cccc23)NC(=O)[C@H]([C@@H](C)O)NC(=O)[C@H](CC(=O)N(C)C)NC(=O)[C@@H](NC(=O)CCOCCOCC[N+](C)(C)C)C(C)(C)SSC(C)(C)[C@@H](C(=O)N[C@@H](Cc2ccc(OCCCCC[N+](C)(C)C)cc2)C(=O)N[C@@H](Cc2ccc3ccccc3c2)C(=O)NC2(C(=O)N[C@@H](CCCCN(C)C(C)=O)C(=O)N[C@@H](CC(N)=O)C(=O)N[C@@H](Cc3cccnc3)C(=O)N(C)[C@@H](CCCCNC(=O)COCCOCCNC(=O)COCCOCCNC(=O)CC[C@H](NC(=O)CCCCCCCCCCC)C(=O)O)C(N)=O)CCOCC2)NC1=O)C(=O)O` [compound 352, cPEG3aCO-Pen(3)-N(N(Me)2)-T-7MeW-K(PEG2PEG2gEC12)-Pen(3)-TMAPF-2Nal-THP-K(NMeac)-N-3Pya-NMeK(PEG2PEG2gEC12)-CONH2] ({Me3N+(CH2)2O(CH2)2O(CH2)2CO}-[Pen]D(NMe2)T[Trp(7-Me)]K([AEEA-AEEA-γGlu-Lauroyl])[Pen]Y(X3)[2Nal][Thp][Lys(Me)](Ac)N[3Pal][NMeK]([AEEA-AEEA-γGlu-Lauroyl])-NH2; disulfide 1-6), the IC50 at IL-23R worked out at 190 nM. In addition, the EPSA in data set [1] stood at 179 A^2.

As for `CCCCCCCCCCCC(=O)N[C@@H](CCC(=O)NCCOCCOCC(=O)NCCOCCOCC(=O)NCCCC[C@@H]1NC(=O)[C@@H](NC(=O)CCOCCOCC[N+](C)(C)C)C(C)(C)SSC(C)(C)[C@@H](C(=O)N[C@@H](Cc2ccc(OCCCCC[N+](C)(C)C)cc2)C(=O)N[C@@H](Cc2ccc3ccccc3c2)C(=O)NC2(C(=O)N[C@@H](CCCCN(C)C(C)=O)C(=O)N[C@@H](CC(N)=O)C(=O)N[C@@H](Cc3cccnc3)C(=O)N(C)[C@@H](CCCCNC(=O)COCCOCCNC(=O)COCCOCCNC(=O)CC[C@H](NC(=O)CCCCCCCCCCC)C(=O)O)C(N)=O)CCOCC2)NC(=O)[C@H](CCCCNC(C)=O)NC(=O)[C@H](Cc2c[nH]c3c(C)cccc23)NC(=O)[C@H]([C@@H](C)O)NC1=O)C(=O)O` [compound 356, cPEG3aCO-Pen(3)-K(PEG2PEG2gEC12)-T-7MeW-K(Ac)-Pen(3)-TMAPF-2Nal-THP-K(NMeac)-N-3Pya-NMeK(PEG2PEG2gEC12)-CONH2] ({Me3N+(CH2)2O(CH2)2O(CH2)2CO}-[Pen]K([AEEA-AEEA-γGlu-Lauroyl])T[Trp(7-Me)]K(Ac)[Pen]Y(X3)[2Nal][Thp][Lys(Me)](Ac)N[3Pal][NMeK]([AEEA-AEEA-γGlu-Lauroyl])-NH2; disulfide 1-6), the IC50 on IL-23R was determined as 280 nM. Moreover, the EPSA in data set [1] was 174 A^2.
